Several values for one entry are separate records, joined by “and”; a condition that tells them apart may be missing. Equal values may be shown once.
Columns and labels:
Type in all cases: cell-based
microbial load [1] = assay: Microbial load reduction on CTAB-coated polyester cotton fabric, electric field with varying voltage; details: for Microbial load reduction (Log10 scale) at 10 mins: polyester cotton fabric, 0.02±0.005% w/v coating, capacitance 0.05 μF
Procedure: Another set of experiments were conducted wherein the procedure for coating of QAC (CTAB) onto the polyester cotton fabric was identical to the procedure described in Example 1. The CTAB concentration employed was 0.02±0.005% w/v and the final coated amount of QAC (CTAB) was between 0.01-0.05 mg/cm^2 of the solid surface. The electric field in this experiment was applied via. switch mode power supply (SMPS).

microbial load [2] = assay: Microbial load reduction on QAC-coated metal surface (aluminium plate) with or without electric field
Procedure: The effect of QAC coating and electric field application on non-flexible/hard solid surfaces was analysed. The solid surface analysed was a metal surface (aluminium plate). The coating procedure of QAC (cetrimonium salt—CTAB) was identical to the procedure described in Example 1. The final coated amount of CTAB was between 0.01-0.05 mg/cm^2 of the solid surface. The electric field in this experiment was applied via. switch mode power supply (SMPS) with a voltage of 4 kV/cm coupled with a capacitance of 0.05 μF for various time-periods.
It was observed that when the metal was coated with low concentration of cetrimonium salt (CTAB) followed by application of electric field, the subjected microbial load was completely eliminated (>7 log10 reduction in microbial load or >99.99999% reduction in microbial load) within 10 minutes [Experiment No. 4]. […] Lastly, under normal conditions, when the metal was left undisturbed, the microbial load remained largely unaltered over a period of 30 minutes [Experiment No. 1].

microbial load [3] = assay: Microbial load reduction on QAC-coated cotton cloth with or without electric field; details: for Microbial Load Reduction (Log10 Scale): cotton cloth coated with 0.01% w/v
Procedure: The effect of QAC coating and electric field application on flexible solid surfaces was analysed. The solid surface analysed was fabric (cotton cloth). The procedure for coating of QAC (CTAB or benzalkonium chloride) onto the cotton cloth was identical to the procedure described in Example 1. The final coated amount of QAC (CTAB or benzalkonium chloride) was between 0.01-0.05 mg/cm^2 of the solid surface. The electric field in this experiment was applied via. switch mode power supply (SMPS) with a voltage of 4 kV/cm coupled with a capacitance of 0.05 μF for various time-periods.
Reduction in microbial load was analysed using different methods.

microbial load [4] = assay: Microbial load reduction on cotton cloth coated with quaternary ammonium compound alone; details: no electric field
Procedure: The solid surface (cotton cloth) was suspended in a solution containing cetyltrimethylammonium bromide (CTAB) or alkyl dimethyl benzyl ammonium chloride (benzalkonium chloride) at various concentrations for about 2 hours. The solid surfaces were then heat dried in a furnace where the temperature was set at about 80° C., for about 8 hours. Once dried, the solid surfaces coated with QAC were ready to be used for various applications.
Reduction in microbial load was analysed at different concentrations of QACs.

microbial load [5] = assay: Microbial load reduction on CTAB-coated polyester cotton fabric, electric field with varying capacitance; details: for Microbial Load Reduction (Log10 Scale): polyester cotton fabric 90:10, 0.02±0.005% w/v coating, electric field 4 kV/cm DC
Procedure: The effect of QAC coating and varying electric field application on solid surfaces was analysed. The solid surface analysed was polyester cotton fabric in the ratio 90:10. The procedure for coating of QAC (CTAB) onto the said polyester cotton fabric was identical to the procedure described in Example 1. The CTAB concentration employed was 0.02±0.005% w/v and the final coated amount of QAC (CTAB) was between 0.01-0.05 mg/cm^2 of the solid surface. The electric field in this experiment was applied via. switch mode power supply (SMPS).

## CCCCCCCCCCCCCCCC[N+](C)(C)C.[Br-] [CTAB, cetyltrimethylammonium bromide]
Microbial load [1]; coating followed by electric field at voltage lower than 2 kV/cm (0.5, 0.75, 1 or 1.25 kV/cm)
  reduction in the microbial load: no notable reduction in the microbial load
Microbial load [1]; applied voltage 0.5 kV/cm
  Microbial load reduction (Log10 scale) at 10 mins: 1.18 Log10
Microbial load [1]; applied voltage 0.75 kV/cm
  Microbial load reduction (Log10 scale) at 10 mins: 1.22 Log10
Microbial load [1]; applied voltage 1 kV/cm
  Microbial load reduction (Log10 scale) at 10 mins: 1.44 Log10
Microbial load [1]; applied voltage 1.25 kV/cm
  Microbial load reduction (Log10 scale) at 10 mins: 1.68 Log10
Microbial load [1]; applied voltage 2 kV/cm
  Microbial load reduction (Log10 scale) at 10 mins: 7.68 Log10
Microbial load [1]; applied voltage 2.5 kV/cm
  Microbial load reduction (Log10 scale) at 10 mins: 8.78 Log10
Microbial load [1]; applied voltage 3 kV/cm
  Microbial load reduction (Log10 scale) at 10 mins: 9.42 Log10
Microbial load [2]; Metal (aluminium plate) + QAC 0.01% w/v + Electric Field (SMPS, 4 kV/cm, 0.05 μF), 0 mins
  Microbial Load Reduction (Log10 Scale): 0.00 Log10
Microbial load [2]; Metal (aluminium plate) + QAC 0.01% w/v + Electric Field (SMPS, 4 kV/cm, 0.05 μF), 5 mins
  Microbial Load Reduction (Log10 Scale): 5.55 Log10
Microbial load [2]; Metal (aluminium plate) + QAC 0.01% w/v + Electric Field (SMPS, 4 kV/cm, 0.05 μF), 10 mins
  Microbial Load Reduction (Log10 Scale): 7.51 Log10
Microbial load [2]; Metal (aluminium plate) + QAC 0.01% w/v + Electric Field (SMPS, 4 kV/cm, 0.05 μF), 20 mins
  Microbial Load Reduction (Log10 Scale): 7.51 Log10
Microbial load [2]; Metal (aluminium plate) + QAC 0.01% w/v + Electric Field (SMPS, 4 kV/cm, 0.05 μF), 30 mins
  Microbial Load Reduction (Log10 Scale): 7.51 Log10
Microbial load [2]; Metal (aluminium plate) + QAC 0.01% w/v, no electric field, 0 mins
  Microbial Load Reduction (Log10 Scale): 0.00 Log10
Microbial load [2]; Metal (aluminium plate) + QAC 0.01% w/v, no electric field, 5 mins
  Microbial Load Reduction (Log10 Scale): 0.22 Log10
Microbial load [2]; Metal (aluminium plate) + QAC 0.01% w/v, no electric field, 10 mins
  Microbial Load Reduction (Log10 Scale): 0.42 Log10
Microbial load [2]; Metal (aluminium plate) + QAC 0.01% w/v, no electric field, 20 mins
  Microbial Load Reduction (Log10 Scale): 0.57 Log10
Microbial load [2]; Metal (aluminium plate) + QAC 0.01% w/v, no electric field, 30 mins
  Microbial Load Reduction (Log10 Scale): 0.95 Log10
Microbial load [2]; metal coated with CTAB alone, at 30 minutes (Experiment No. 3)
  reduction in the microbial load: no significant reduction in the microbial load
Microbial load [3]; coated cotton cloth not subjected to electric field, until 30 minutes (Experiment 1 Trial 1 and 3)
  log10 reduction in microbial load: ≤ 2.16 log10
Microbial load [3]; With Electric Field (SMPS, 4 kV/cm, 0.05 μF), 0 mins
  Microbial Load Reduction (Log10 Scale): 0.00 Log10
Microbial load [3]; With Electric Field (SMPS, 4 kV/cm, 0.05 μF), 10 mins
  Microbial Load Reduction (Log10 Scale): 7.48 Log10 and 7.30 Log10
Microbial load [3]; With Electric Field (SMPS, 4 kV/cm, 0.05 μF), 30 mins
  Microbial Load Reduction (Log10 Scale): 7.48 Log10 and 7.30 Log10
Microbial load [3]; Without Electric Field, 0 mins
  Microbial Load Reduction (Log10 Scale): 0.00 Log10
Microbial load [3]; Without Electric Field, 10 mins
  Microbial Load Reduction (Log10 Scale): 1.09 Log10 and 1.06 Log10
Microbial load [3]; Without Electric Field, 30 mins
  Microbial Load Reduction (Log10 Scale): 2.16 Log10 and 2.15 Log10
Microbial load [4]; cotton cloth coated with 0.01% w/v, 0 mins
  Microbial Load Reduction (Log10 Scale): 0.00 Log10
Microbial load [4]; cotton cloth coated with 0.01% w/v, 10 mins
  Microbial Load Reduction (Log10 Scale): 1.11 Log10
Microbial load [4]; cotton cloth coated with 0.01% w/v, 30 mins
  Microbial Load Reduction (Log10 Scale): 2.52 Log10
Microbial load [4]; cotton cloth coated with 0.01% w/v, 45 mins
  Microbial Load Reduction (Log10 Scale): 4.35 Log10
Microbial load [4]; cotton cloth coated with 0.01% w/v, 60 mins
  Microbial Load Reduction (Log10 Scale): 7.60 Log10
Microbial load [4]; cotton cloth coated with 0.01% w/v, 90 mins
  Microbial Load Reduction (Log10 Scale): 7.60 Log10
Microbial load [4]; cotton cloth coated with 0.05% w/v, 0 mins
  Microbial Load Reduction (Log10 Scale): 0.00 Log10
Microbial load [4]; cotton cloth coated with 0.05% w/v, 10 mins
  Microbial Load Reduction (Log10 Scale): 1.18 Log10
Microbial load [4]; cotton cloth coated with 0.05% w/v, 30 mins
  Microbial Load Reduction (Log10 Scale): 2.54 Log10
Microbial load [4]; cotton cloth coated with 0.05% w/v, 45 mins
  Microbial Load Reduction (Log10 Scale): 5.12 Log10
Microbial load [4]; cotton cloth coated with 0.05% w/v, 60 mins
  Microbial Load Reduction (Log10 Scale): 7.32 Log10
Microbial load [4]; cotton cloth coated with 0.05% w/v, 90 mins
  Microbial Load Reduction (Log10 Scale): 7.32 Log10
Microbial load [4]; cotton cloth coated with 0.1% w/v, 0 mins
  Microbial Load Reduction (Log10 Scale): 0.00 Log10
Microbial load [4]; cotton cloth coated with 0.1% w/v, 10 mins
  Microbial Load Reduction (Log10 Scale): 7.41 Log10
Microbial load [4]; cotton cloth coated with 0.1% w/v, 30 mins
  Microbial Load Reduction (Log10 Scale): 7.41 Log10
Microbial load [4]; cotton cloth coated with 0.1% w/v, 45 mins
  Microbial Load Reduction (Log10 Scale): 7.41 Log10
Microbial load [4]; cotton cloth coated with 0.1% w/v, 60 mins
  Microbial Load Reduction (Log10 Scale): 7.41 Log10
Microbial load [4]; cotton cloth coated with 0.1% w/v, 90 mins
  Microbial Load Reduction (Log10 Scale): 7.41 Log10
Microbial load [4]; cotton cloth coated with 0.25% w/v, 0 mins
  Microbial Load Reduction (Log10 Scale): 0.00 Log10
Microbial load [4]; cotton cloth coated with 0.25% w/v, 10 mins
  Microbial Load Reduction (Log10 Scale): 7.45 Log10
Microbial load [4]; cotton cloth coated with 0.25% w/v, 30 mins
  Microbial Load Reduction (Log10 Scale): 7.45 Log10
Microbial load [4]; cotton cloth coated with 0.25% w/v, 45 mins
  Microbial Load Reduction (Log10 Scale): 7.45 Log10
Microbial load [4]; cotton cloth coated with 0.25% w/v, 60 mins
  Microbial Load Reduction (Log10 Scale): 7.45 Log10
Microbial load [4]; cotton cloth coated with 0.25% w/v, 90 mins
  Microbial Load Reduction (Log10 Scale): 7.45 Log10
Microbial load [4]; cotton cloth coated with 0.5% w/v, 0 mins
  Microbial Load Reduction (Log10 Scale): 0.00 Log10
Microbial load [4]; cotton cloth coated with 0.5% w/v, 10 mins
  Microbial Load Reduction (Log10 Scale): 7.00 Log10
Microbial load [4]; cotton cloth coated with 0.5% w/v, 30 mins
  Microbial Load Reduction (Log10 Scale): 7.00 Log10
Microbial load [4]; cotton cloth coated with 0.5% w/v, 45 mins
  Microbial Load Reduction (Log10 Scale): 7.00 Log10
Microbial load [4]; cotton cloth coated with 0.5% w/v, 60 mins
  Microbial Load Reduction (Log10 Scale): 7.00 Log10
Microbial load [4]; cotton cloth coated with 0.5% w/v, 90 mins
  Microbial Load Reduction (Log10 Scale): 7.00 Log10
Microbial load [4]; cotton cloth coated with 0.75% w/v, 0 mins
  Microbial Load Reduction (Log10 Scale): 0.00 Log10
Microbial load [4]; cotton cloth coated with 0.75% w/v, 10 mins
  Microbial Load Reduction (Log10 Scale): 7.78 Log10
Microbial load [4]; cotton cloth coated with 0.75% w/v, 30 mins
  Microbial Load Reduction (Log10 Scale): 7.78 Log10
Microbial load [4]; cotton cloth coated with 0.75% w/v, 45 mins
  Microbial Load Reduction (Log10 Scale): 7.78 Log10
Microbial load [4]; cotton cloth coated with 0.75% w/v, 60 mins
  Microbial Load Reduction (Log10 Scale): 7.78 Log10
Microbial load [4]; cotton cloth coated with 0.75% w/v, 90 mins
  Microbial Load Reduction (Log10 Scale): 7.78 Log10
Microbial load [5]; coating followed by electric field at capacitance 0.00025 μF or 0.000025 μF (Experiments 4 and 5)
  reduction in the microbial load: a notable reduction in the microbial load was observed only around 5 minutes
Microbial load [5]; capacitance 0.000025 μF, 3 mins
  Microbial Load Reduction (Log10 Scale): 1.01 Log10
Microbial load [5]; capacitance 0.000025 μF, 4 mins
  Microbial Load Reduction (Log10 Scale): 2.09 Log10
Microbial load [5]; capacitance 0.000025 μF, 5 mins
  Microbial Load Reduction (Log10 Scale): 3.20 Log10
Microbial load [5]; capacitance 0.00025 μF, 3 mins
  Microbial Load Reduction (Log10 Scale): 1.01 Log10
Microbial load [5]; capacitance 0.00025 μF, 4 mins
  Microbial Load Reduction (Log10 Scale): 3.20 Log10
Microbial load [5]; capacitance 0.00025 μF, 5 mins
  Microbial Load Reduction (Log10 Scale): 4.44 Log10
Microbial load [5]; capacitance 0.0025 μF, 3 mins
  Microbial Load Reduction (Log10 Scale): 2.12 Log10
Microbial load [5]; capacitance 0.0025 μF, 4 mins
  Microbial Load Reduction (Log10 Scale): 3.27 Log10
Microbial load [5]; capacitance 0.0025 μF, 5 mins
  Microbial Load Reduction (Log10 Scale): 6.78 Log10
Microbial load [5]; capacitance 0.025 μF, 3 mins
  Microbial Load Reduction (Log10 Scale): 4.32 Log10
Microbial load [5]; capacitance 0.025 μF, 4 mins
  Microbial Load Reduction (Log10 Scale): 6.78 Log10
Microbial load [5]; capacitance 0.025 μF, 5 mins
  Microbial Load Reduction (Log10 Scale): 6.78 Log10
Microbial load [5]; capacitance 0.05 μF, 3 mins
  Microbial Load Reduction (Log10 Scale): 4.44 Log10
Microbial load [5]; capacitance 0.05 μF, 4 mins
  Microbial Load Reduction (Log10 Scale): 6.78 Log10
Microbial load [5]; capacitance 0.05 μF, 5 mins
  Microbial Load Reduction (Log10 Scale): 6.78 Log10

From patent publication US12582731B2, “Method to decontaminate solid surface” (BIOMONETA RESEARCH PVT LTD, priority 2022, dated 2026)
